The text below walks through data of PMC8194506 (Antiviral research, 2020).

Like-named read-outs stand apart in the source and are kept apart here.

Data set [1] concerns EBOV. To be noted: mouse, in vivo; cited from earlier work.
In another data set the test system is Sudan virus. To be noted: guinea pig, in vivo, sc; cited from earlier work.
The subject of data set [2] is EBOV. The following applies: cited from earlier work.
The nature of data set [3]: in vitro. The following applies: guinea pig, microsomes.
Data set [4] relates to Marburg virus/H.sapiens-tc/AGO/2005/Ang-1379v (MARV/Ang). As to the kind of experiment: organism not typed. It counts as cell-based. The following applies: HeLa.
The conditions of data set [5]: guinea pig, microsomes.
The conditions of data set [6]: mouse, microsomes.
Data set [7] can be described thus: in vitro. To be noted: human.
In data set [8] the test system is Marburg virus/H.sapiens-tc/KEN/1980/Mt. Elgon-Musoke (MARV/Mus). Briefly: organism not typed. The class given is cell-based. To be noted: HeLa.
The conditions of data set [9]: human, microsomes.
A short description of data set [10]: in vitro. To be noted: mouse, microsomes.
Data set [11] deals with VSV pseudotyped with EBOV glycoprotein. The class given is cell-based.
Another data set has as its system MARV Musoke strain. The class given is cell-based, Marburg virus.
For data set [12] the following is noted: microsomes.
The nature of data set [13]: in vitro. The following applies: human, microsomes.
The subject of another data set is MARV (Musoke and Angola). Briefly: organism not typed. To be noted: HeLa, read-out: IC50 range against two strains of MARV. The class given is cell-based, Marburg virus.
For data set [14] the following is noted: both, Hartley, guinea pig, in vivo.
Data set [15] relates to EBOV (Kikwit, Mayinga and Makona). As to the kind of experiment: microbe, parasite or virus in culture. The class given is cell-based, Ebola virus. The following applies: Zaire ebolavirus, HeLa, read-out: IC50 range against three strains of EBOV.
The conditions of data set [16]: male, Hartley, guinea pig, in vivo.
A further data set is described as follows: in vivo. The following applies: male, Hartley, guinea pig, ip, 125 mg/kg.
The conditions of data set [17]: human, in vivo; cited from earlier work.
The conditions of data set [18]: pH 7.4.
The subject of data set [19] is EBOV. The following applies: in vivo, iv; cited from earlier work.
Data set [20] concerns EBOV. To be noted: human, in vivo; cited from earlier work.

A word on the half-life: it is the time in which the quantity being followed falls by half. A lower half-life goes with rapid decline. The term IC50 denotes the concentration at which inhibition is half-maximal. One may read the AUC(0-inf) as total exposure, with the tail of the curve extrapolated. Read a high AUC(0-inf) as high exposure. For orientation: AUC(0-t) means exposure summed from dosing to a finite time, without extrapolation to infinity. Read a low AUC(0-t) as low exposure. The Cmax is the highest concentration seen after dosing.

In the case of `NC(=O)c1nc(F)c[nH]c1=O` [Favipiravir], the protection in the data set with EBOV [1] is 83%. Besides, the survival rates in the data set with Sudan virus was 83–100%.

On to 17-DMAG, for which the “activity in the guinea pig in vivo model” value in the data set with EBOV [2] is “inactive”.

Take `CCN(CC)CCOc1ccc2c(c1)C(=O)c1cc(OCCN(CC)CC)ccc1-2` [Tilorone]: the half-life in the data set “in vitro [3]” was found to be 0.203 h; in “in vitro [10]” it was 1.71 h; in “in vitro [13]”, 2.12 h. In addition, the values for the IC50 in [4] and in data set [8] were 4510 ± 1930 nM and 2050 ± 280 nM, respectively. Moreover, the Clint amounted to 113.7 µL·min/mg in data set [5], 13.5 µL·min/mg in data set [6], 10.9 µL·min/mg in data set [9] and 14.7 µL·min/mg in [12]. In “in vitro [7]”, this molecule returned a CC50 of 18000 ± 3040 nM. The “Effect on entry stage of infection in pseudotype assay” value (from here on “Effect on entry stage of infection”) in data set [11] was “block the entry stage of infection”. For the same molecule, in the data set with MARV Musoke strain, the “Activity against MARV Musoke strain” value was “active”.

`CCN(CC)CCCC(C)Nc1ccnc2cc(Cl)ccc12` (centres unmarked) [Chloroquine]: the figures for the half-life in “in vitro [3]”, in the data set “in vitro [10]” and in “in vitro [13]” were 2.21 h, 0.788 h and 3.36 h, respectively. Further, the Clint in [5] was 10.5 µL·min/mg; in [6], 29.3 µL·min/mg; in data set [9], 6.9 µL·min/mg; in data set [12], 13.0 µL·min/mg. Further, in the data set on EBOV [2], the “activity in the guinea pig in vivo model” value was “inactive”.

As for `Nc1nc(Nc2ccc3c(c2)CC[C@@H](N2CCCC2)CC3)nn1-c1cc2c(nn1)-c1ccccc1CCC2` [BGB324], the “activity in the guinea pig in vivo model” value in the data set on EBOV [2] is “inactive”.

With `COc1ccc2nc3cc(Cl)ccc3c(Nc3cc(CN4CCCC4)c(O)c(CN4CCCC4)c3)c2n1` [Pyronaridine, 4-[(7-Chloro-2-methoxybenzo[b][1,5]naphthyridin-10-yl)amino]-2,6-bis(1-pyrrolidinylmethyl)phenol phosphate (1:4)], the half-life in “in vitro [3]” was 1.1 h; in “in vitro [10]” it was greater than 3.1 h; in “in vivo” (T1/2), 72.7 h; in “in vitro [13]”, 2.04 h. The half-inhibitory concentration (IC50) was 2720 ± 970 nM in data set [4]; 1010 to 2720 nM with MARV (Musoke and Angola); 1010 ± 110 nM in data set [8]; 820 to 1300 nM in data set [15]. In addition, the Clint in data set [5] was 21.0 µL·min/mg; in data set [6], less than 7.4 µL·min/mg; in [9], 11.4 µL·min/mg; in data set [12], 15.5 µL·min/mg. The CC50 in “in vitro [7]” amounted to 4110 ± 500 nM. In addition, the “Effect on entry stage of infection” value in data set [11] is “block the entry stage of infection”. Besides, in data set [14], the “guinea pigs found dead within 30 mins post injection” value is 4 of 6. Also, the “guinea pigs having any abnormal clinical observations” value in [14] was 1 of 6. For the same molecule, in the data set with MARV Musoke strain, the “Activity against MARV Musoke strain” value is recorded as “active”. In addition, the “Guinea pigs found dead on days 14 and 17 post dose” value in data set [16] is listed as 2 of 3. Further, the T1/2 in data set [16] (po, 600 mg/kg) turned out to be 90.5 h. The molecule also yielded an AUC(0-inf) in the data set “in vivo” of 17400 ng·h/mL. This molecule also yielded an AUC(0-t) in “in vivo” of 16600 ng·h/mL. In the data set “in vivo”, this molecule registered a Cmax of 523 ng/mL. In addition, the t1/2 in [17] was 195 to 251 h.

For `CCCCc1oc2ccccc2c1C(=O)c1cc(I)c(OCCN(CC)CC)c(I)c1` [amiodarone], the “activity in the guinea pig in vivo model” value in the data set on EBOV [2] was “inactive”.

Regarding `CC[C@H]1OC(=O)[C@H](C)[C@@H](O[C@H]2C[C@@](C)(OC)[C@@H](O)[C@H](C)O2)[C@H](C)[C@@H](O[C@@H]2O[C@H](C)C[C@H](N(C)C)[C@H]2O)[C@](C)(O)C[C@@H](C)CN(C)[C@H](C)[C@@H](O)[C@]1(C)O` [azithromycin], in the data set with EBOV [2], the “activity in the guinea pig in vivo model” value was “inactive”.

Regarding `CCN(CC)CCCC(C)Nc1c2ccc(Cl)cc2nc2ccc(OC)cc12` (centres unmarked) [Quinacrine], the half-life worked out at 0.285 h in the data set “in vitro [3]”, 0.21 h in the data set “in vitro [10]” and 0.458 h in the data set “in vitro [13]”. For the same molecule, the half-maximal inhibitory concentration (IC50) in data set [4] is 2940 ± 760 nM; in data set [8] it was 1570 ± 170 nM. Also, the Clint in [5] stood at 81.3 µL·min/mg; in data set [6] it was 110.0 µL·min/mg; in [9], 50.5 µL·min/mg; in [12], 137.4 µL·min/mg. In “in vitro [7]”, the CC50 was determined as 8620 ± 20 nM. Further, in data set [11], the “Effect on entry stage of infection” value was “block the entry stage of infection”. In addition, in the data set with MARV Musoke strain, the “Activity against MARV Musoke strain” value was “active”. Further, the “O-demethylation, higher in guinea pig” value in data set [18] was 2–3 times.

Regarding `CCC(CC)COC(=O)[C@H](C)N[P@](=O)(OC[C@H]1O[C@@](C#N)(c2ccc3c(N)ncnn23)[C@H](O)[C@@H]1O)Oc1ccccc1` [remdesivir], in the data set with EBOV [19], the survival is listed as 100%. For the same molecule, the overall survival rate in the data set on EBOV [20] is reported as 47%.

B1: mAb114: a monoclonal antibody (antibody, chains of the INN, looked up, V domains shown)
VH: EVQLVESGGGLIQPGGSLRLSCAASGFALRMYDMHWVRQTIDKRLEWVSAVGPSGDTTYADSVKGRFAVSRENAKNSLSLQMNSLTAGDTAIYYCVRSDRGVAGLFDSWGQGILVTVSS
VL: DIQMTQSPSSLSASVGDRITITCRASQAFDNYVAWYQQRPGKVPKLLISAASALHAGVPSRFSGSGSGTHFTLTISSLQPEDVATYYCQNYNSAPLTFGGGTKVEIK
For the molecule B1, the overall survival rate in the data set with EBOV [20] is 66%.
